The values that follow come from the supplement of paper PMC10307832.

Holding throughout (assay): relative viability (nuclei count vs DMSO), 5 days (fraction); higher = more cells survive
Compound in the assay “YM155 + Decitabine”: COCC[n+]1c2c(n(Cc3cnccn3)c1C)C(=O)c1ccccc1C2=O [YM155] + Nc1ncn([C@H]2C[C@H](O)[C@@H](CO)O2)c(=O)n1 [Decitabine] (partner 2 µM)
In short, it runs like this:
(§1)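 Relative viability is defined as nuclei in treated wells over nuclei in vehicle wells. Duplicate plates were run and medians reported. Lung cancer cell lines in 1536-well plates were dosed by pin tool one day after seeding, with one drug or with a fixed anchor-drug dose plus five library-drug doses (not always all listed) in √10 steps, and nuclei were counted after 5 days.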

Compound in the assay “YM155 + Linsitinib”: COCC[n+]1c2c(n(Cc3cnccn3)c1C)C(=O)c1ccccc1C2=O [YM155] + C[C@]1(O)C[C@@H](c2nc(-c3ccc4ccc(-c5ccccc5)nc4c3)c3c(N)nccn32)C1 [Linsitinib] (partner 1 µM)
The essentials: as §1

Compound in the assay “YM155 + Trametinib”: COCC[n+]1c2c(n(Cc3cnccn3)c1C)C(=O)c1ccccc1C2=O [YM155] + CC(=O)Nc1cccc(-n2c(=O)n(C3CC3)c(=O)c3c(Nc4ccc(I)cc4F)n(C)c(=O)c(C)c32)c1 [Trametinib] (partner 0.02 µM)
In short, it runs like this:
as §1

Compound in the assay “Quizartinib + Luminespib”: CC(C)(C)c1cc(NC(=O)Nc2ccc(-c3cn4c(n3)sc3cc(OCCN5CCOCC5)ccc34)cc2)no1 [Quizartinib] + CCNC(=O)c1noc(-c2cc(C(C)C)c(O)cc2O)c1-c1ccc(CN2CCOCC2)cc1 [Luminespib] (partner 0.01 µM)
In short, it runs like this: as §1

With LU99A, the relative viability with YM155 + Decitabine (first compound 0.002 µM) stood at 0.84; with YM155 + Decitabine (first compound 0.006325 µM) it was 0.808; in the assay with YM155 + Decitabine (first compound 0.02 µM) it was 0.824; in the assay with YM155 + Decitabine (first compound 0.06325 µM), 0.936; with YM155 + Linsitinib (first compound 0.002 µM), 0.581; with YM155 + Linsitinib (first compound 0.006325 µM) it was 0.503. In addition, the relative viability was 0.554 with YM155 + Linsitinib (first compound 0.02 µM); 0.545 with YM155 + Linsitinib (first compound 0.06325 µM); 0.539 with YM155 + Trametinib (first compound 0.002 µM); 0.496 with YM155 + Trametinib (first compound 0.006325 µM); 0.641 with YM155 + Trametinib (first compound 0.02 µM); 0.56 with YM155 + Trametinib (first compound 0.06325 µM). For the same cell line, the relative viability with Quizartinib + Luminespib (first compound 0.001 µM) stood at 0.268; with Quizartinib + Luminespib (first compound 0.003162 µM), 0.216; with Quizartinib + Luminespib (first compound 0.01 µM) it was 0.234; with Quizartinib + Luminespib (first compound 0.03162 µM), 0.257; with Quizartinib + Luminespib (first compound 0.1 µM), 0.237.

Take LXF-289: the relative viability was 0.354 in the assay with YM155 + Decitabine (first compound 0.002 µM); 0.39 in the assay with YM155 + Decitabine (first compound 0.006325 µM); 0.371 with YM155 + Decitabine (first compound 0.02 µM); 0.379 with YM155 + Decitabine (first compound 0.06325 µM); 0.97 with YM155 + Linsitinib (first compound 0.002 µM); 0.86 with YM155 + Linsitinib (first compound 0.006325 µM). Moreover, the relative viability was 0.999 in the assay with YM155 + Linsitinib (first compound 0.02 µM); 0.828 with YM155 + Linsitinib (first compound 0.06325 µM); 0.665 with YM155 + Trametinib (first compound 0.002 µM); 0.746 with YM155 + Trametinib (first compound 0.006325 µM); 0.697 with YM155 + Trametinib (first compound 0.02 µM); 0.711 with YM155 + Trametinib (first compound 0.06325 µM). The relative viability with Quizartinib + Luminespib (first compound 0.001 µM) was found to be 0.63; in the assay with Quizartinib + Luminespib (first compound 0.003162 µM), 0.666; with Quizartinib + Luminespib (first compound 0.01 µM), 0.778; with Quizartinib + Luminespib (first compound 0.03162 µM) it was 0.699; with Quizartinib + Luminespib (first compound 0.1 µM) it was 0.794.

On to NCI-H522, for which the relative viability with YM155 + Decitabine (first compound 0.002 µM) amounted to 0.72; in the assay with YM155 + Decitabine (first compound 0.006325 µM), 0.664; in the assay with YM155 + Decitabine (first compound 0.02 µM), 0.684; with YM155 + Decitabine (first compound 0.06325 µM), 0.668; in the assay with YM155 + Trametinib (first compound 0.002 µM), 0.625; with YM155 + Trametinib (first compound 0.006325 µM), 0.711. Further, the relative viability is 0.71 with YM155 + Trametinib (first compound 0.02 µM); 0.75 with YM155 + Trametinib (first compound 0.06325 µM); 1.11 with Quizartinib + Luminespib (first compound 0.001 µM); 1.07 with Quizartinib + Luminespib (first compound 0.003162 µM); 0.892 in the assay with Quizartinib + Luminespib (first compound 0.01 µM); 1.1 with Quizartinib + Luminespib (first compound 0.03162 µM). The relative viability with Quizartinib + Luminespib (first compound 0.1 µM) is 1.47.

As for NCI-H1299, the relative viability stood at 1 with YM155 + Linsitinib (first compound 0.002 µM), 0.962 with YM155 + Linsitinib (first compound 0.006325 µM), 1 with YM155 + Linsitinib (first compound 0.02 µM) and 0.88 with YM155 + Linsitinib (first compound 0.06325 µM).

Turning to NCI-H1563, the relative viability with YM155 + Linsitinib (first compound 0.002 µM) turned out to be 1.26; with YM155 + Linsitinib (first compound 0.006325 µM) it was 1.38; with YM155 + Linsitinib (first compound 0.02 µM) it was 1.24; in the assay with YM155 + Linsitinib (first compound 0.06325 µM) it was 1.28; with Quizartinib + Luminespib (first compound 0.001 µM) it was 0.516; with Quizartinib + Luminespib (first compound 0.003162 µM) it was 0.499. Also, the results for the relative viability with Quizartinib + Luminespib (first compound 0.01 µM), with Quizartinib + Luminespib (first compound 0.03162 µM) and in the assay with Quizartinib + Luminespib (first compound 0.1 µM) were 0.528, 0.551 and 0.584, respectively.

As to NCI-H1623, the relative viability was 0.38 with Quizartinib + Luminespib (first compound 0.001 µM); 0.564 with Quizartinib + Luminespib (first compound 0.003162 µM); 0.455 with Quizartinib + Luminespib (first compound 0.01 µM); 0.57 with Quizartinib + Luminespib (first compound 0.03162 µM); 0.408 with Quizartinib + Luminespib (first compound 0.1 µM).

Consider NCI-H1650, for which the relative viability turned out to be 0.382 with YM155 + Decitabine (first compound 0.002 µM); 0.384 with YM155 + Decitabine (first compound 0.006325 µM); 0.452 with YM155 + Decitabine (first compound 0.02 µM); 0.203 with YM155 + Decitabine (first compound 0.06325 µM); 0.478 with YM155 + Trametinib (first compound 0.002 µM); 0.581 with YM155 + Trametinib (first compound 0.006325 µM). The relative viability with YM155 + Trametinib (first compound 0.02 µM) stood at 0.458; with YM155 + Trametinib (first compound 0.06325 µM), 0.355; with Quizartinib + Luminespib (first compound 0.001 µM), 0.185; in the assay with Quizartinib + Luminespib (first compound 0.003162 µM) it was 0.182; with Quizartinib + Luminespib (first compound 0.01 µM), 0.19; in the assay with Quizartinib + Luminespib (first compound 0.1 µM), 0.172.

Regarding NCI-H1703, the relative viability in the assay with YM155 + Linsitinib (first compound 0.002 µM) is 0.474; with YM155 + Linsitinib (first compound 0.006325 µM), 1.25; with YM155 + Linsitinib (first compound 0.02 µM) it was 0.622; with YM155 + Linsitinib (first compound 0.06325 µM), 0.411.

As to NCI-H2170, the relative viability with YM155 + Decitabine (first compound 0.002 µM) was 0.506; with YM155 + Decitabine (first compound 0.006325 µM) it was 0.508; with YM155 + Decitabine (first compound 0.02 µM) it was 0.42; in the assay with YM155 + Decitabine (first compound 0.06325 µM), 0.516; with YM155 + Trametinib (first compound 0.002 µM) it was 0.878; with YM155 + Trametinib (first compound 0.006325 µM), 0.936. Also, the relative viability came to 0.903 with YM155 + Trametinib (first compound 0.02 µM); 0.966 with YM155 + Trametinib (first compound 0.06325 µM); 0.65 with Quizartinib + Luminespib (first compound 0.001 µM); 0.741 in the assay with Quizartinib + Luminespib (first compound 0.003162 µM); 0.838 with Quizartinib + Luminespib (first compound 0.01 µM); 0.769 with Quizartinib + Luminespib (first compound 0.03162 µM). Besides, the relative viability with Quizartinib + Luminespib (first compound 0.1 µM) is 0.737.

NCI-H2228: the relative viability is 0.84 in the assay with YM155 + Linsitinib (first compound 0.002 µM); 0.628 in the assay with YM155 + Linsitinib (first compound 0.006325 µM); 0.917 in the assay with YM155 + Linsitinib (first compound 0.02 µM); 0.825 in the assay with YM155 + Linsitinib (first compound 0.06325 µM); 0.485 in the assay with YM155 + Trametinib (first compound 0.002 µM); 0.444 in the assay with YM155 + Trametinib (first compound 0.006325 µM). Also, the relative viability with YM155 + Trametinib (first compound 0.02 µM) is 0.565; in the assay with YM155 + Trametinib (first compound 0.06325 µM), 0.589; with Quizartinib + Luminespib (first compound 0.001 µM), 0.176; with Quizartinib + Luminespib (first compound 0.003162 µM), 0.153; with Quizartinib + Luminespib (first compound 0.01 µM) it was 0.139; in the assay with Quizartinib + Luminespib (first compound 0.03162 µM) it was 0.214. Further, in the assay with Quizartinib + Luminespib (first compound 0.1 µM), the relative viability was 0.159.

Regarding NCI-H2342, the relative viability with YM155 + Decitabine (first compound 0.002 µM) was determined as 0.729; in the assay with YM155 + Decitabine (first compound 0.006325 µM) it was 0.709; with YM155 + Decitabine (first compound 0.02 µM), 0.788; with YM155 + Decitabine (first compound 0.06325 µM) it was 0.717; with YM155 + Trametinib (first compound 0.002 µM) it was 0.738; with YM155 + Trametinib (first compound 0.006325 µM), 0.71. The relative viability with YM155 + Trametinib (first compound 0.02 µM) was 0.829; in the assay with YM155 + Trametinib (first compound 0.06325 µM), 0.757; in the assay with Quizartinib + Luminespib (first compound 0.001 µM), 0.807; with Quizartinib + Luminespib (first compound 0.003162 µM) it was 0.752; with Quizartinib + Luminespib (first compound 0.01 µM), 0.696; with Quizartinib + Luminespib (first compound 0.03162 µM), 0.759. Besides, the relative viability with Quizartinib + Luminespib (first compound 0.1 µM) is 0.762.

Take SW 900: the relative viability with YM155 + Decitabine (first compound 0.006325 µM) was 0.431; with YM155 + Decitabine (first compound 0.02 µM), 0.399; with YM155 + Decitabine (first compound 0.06325 µM) it was 0.458; in the assay with YM155 + Trametinib (first compound 0.006325 µM), 0.922; with YM155 + Trametinib (first compound 0.02 µM), 0.843; with YM155 + Trametinib (first compound 0.06325 µM), 0.809. The relative viability in the assay with Quizartinib + Luminespib (first compound 0.001 µM) turned out to be 0.159; with Quizartinib + Luminespib (first compound 0.003162 µM), 0.188; with Quizartinib + Luminespib (first compound 0.03162 µM) it was 0.153; with Quizartinib + Luminespib (first compound 0.1 µM), 0.161.
